Source: ChEMBL document CHEMBL4364276, “Discovery of 4-phenyl-2H-benzo[b][1,4]oxazin-3(4H)-one derivatives as potent and orally active PI3K/mTOR dual inhibitors” (Eur J Med Chem, 2019)

Tests used:
HeLa = assay: Inhibition of colony formation in human HeLa cells at > 5 uM incubated for 2 weeks crystal violet staining based assay; format: functional
[1] = Toxicity in BALB/c mouse xenografted with human HeLa cells assessed as reduction in body weight at 20 to 50 mg/kg, ig administered for 30 days; format: organism-based; conditions: in vivo, po, 720 h
[2] = biological target: RAC-gamma serine/threonine-protein kinase (Homo sapiens) (UniProt Q9Y243); assay: Inhibition of human AKT3 at 100 nM using KGSGSGRPRTSSFAEG as substrate by [gamma-33P]-ATP assay
[3] = biological target: ALK tyrosine kinase receptor (Homo sapiens) (UniProt Q9UM73); assay: Inhibition of human ALK at 100 nM using poly[Glu:Tyr] (4:1) as substrate by [gamma-33P]-ATP assay
[4] = biological target: Activin receptor type-1B (Homo sapiens) (UniProt P36896); assay: Inhibition of human ALK4 at 100 nM using casein as substrate by [gamma-33P]-ATP assay
Chain of Activin receptor type-1B (Homo sapiens) (P36896 whole entry): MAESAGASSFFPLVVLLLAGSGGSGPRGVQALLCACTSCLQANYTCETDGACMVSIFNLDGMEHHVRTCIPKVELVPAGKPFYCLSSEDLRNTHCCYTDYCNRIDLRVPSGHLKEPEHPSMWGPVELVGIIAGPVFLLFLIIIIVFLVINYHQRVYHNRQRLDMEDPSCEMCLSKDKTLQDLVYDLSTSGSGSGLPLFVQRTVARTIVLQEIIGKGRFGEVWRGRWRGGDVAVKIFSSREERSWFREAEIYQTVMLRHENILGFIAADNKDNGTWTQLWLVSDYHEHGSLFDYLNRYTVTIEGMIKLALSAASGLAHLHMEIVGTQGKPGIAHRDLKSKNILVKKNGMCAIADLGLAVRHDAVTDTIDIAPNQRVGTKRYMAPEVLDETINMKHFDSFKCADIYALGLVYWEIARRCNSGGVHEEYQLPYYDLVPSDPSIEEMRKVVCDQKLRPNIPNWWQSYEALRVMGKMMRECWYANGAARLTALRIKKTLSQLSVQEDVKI

[5] = biological target: Tyrosine-protein kinase Blk (Homo sapiens) (UniProt P51451); assay: Inhibition of human BLK at 100 nM using poly[Glu:Tyr](4:1) as substrate by [gamma-33P]-ATP assay
[6] = biological target: Tyrosine-protein kinase BTK (Homo sapiens) (UniProt Q06187); assay: Inhibition of human BTK at 100 nM using KVEKIGEGTYGVVYK as substrate by [gamma-33P]-ATP assay
[7] = biological target: Calcium/calmodulin-dependent protein kinase type II subunit delta (Homo sapiens) (UniProt Q13557); assay: Inhibition of human CAMK2D at 100 nM using KKLNRTLSFAEPG as substrate by [gamma-33P]-ATP assay
[8] = biological target: CDK3/Cyclin-E2 (Homo sapiens) (UniProt O96020+Q00526); assay: Inhibition of human CDK3/cyclin-E2 at 100 nM using histone H1 as substrate by [gamma-33P]-ATP assay; format: protein-complex assay
[9] = biological target: CDK8/Cyclin C (Homo sapiens) (UniProt P49336+P24863); assay: Inhibition of human CDK8/cyclin-C at 100 nM using KKKVSRSGLYRSPSMPENLNRPR as substrate by [gamma-33P]-ATP assay; format: protein-complex assay
[10] = biological target: Casein kinase I isoform delta (Homo sapiens) (UniProt P48730); assay: Inhibition of human CK1D at 100 nM using KRRRAL[pS]VASLPGL as substrate by [gamma-33P]-ATP assay
[11] = biological target: Dual specificity protein kinase CLK3 (Homo sapiens) (UniProt P49761); assay: Inhibition of human CLK3 at 100 nM using MBP as substrate by [gamma-33P]-ATP assay
[12] = biological target: Tyrosine-protein kinase CSK (Homo sapiens) (UniProt P41240); assay: Inhibition of human CSK at 100 nM using poly[Glu:Tyr] (4:1) as substrate by [gamma-33P]-ATP assay
[13] = biological target: Death-associated protein kinase 2 (Homo sapiens) (UniProt Q9UIK4); assay: Inhibition of human DAPK2 at 100 nM using KKLNRTLSFAEPG as substrate by [gamma-33P]-ATP assay
[14] = biological target: Fibroblast growth factor receptor 3 (Homo sapiens) (UniProt P22607); assay: Inhibition of human FGFR3 at 100 nM using poly[Glu:Tyr] (4:1) as substrate by [gamma-33P]-ATP assay
[15] = biological target: Vascular endothelial growth factor receptor 1 (Homo sapiens) (UniProt P17948); assay: Inhibition of human FLT1 at 100 nM using poly[Glu:Tyr] (4:1) as substrate by [gamma-33P]-ATP assay
[16] = biological target: Vascular endothelial growth factor receptor 3 (Homo sapiens) (UniProt P35916); assay: Inhibition of human FLT4 at 100 nM using poly[Glu:Tyr] (4:1) as substrate by [gamma-33P]-ATP assay
[17] = biological target: Homeodomain-interacting protein kinase 2 (Homo sapiens) (UniProt Q9H2X6); assay: Inhibition of human HIPK2 at 100 nM using MBP as substrate by [gamma-33P]-ATP assay
[18] = biological target: Tyrosine-protein kinase Lck (Homo sapiens) (UniProt P06239); assay: Inhibition of human LCK at 100 nM using poly[Glu:Tyr] (4:1) as substrate by [gamma-33P]-ATP assay
[19] = biological target: Dual specificity mitogen-activated protein kinase kinase 1 (Homo sapiens) (UniProt Q02750); assay: Inhibition of human MEK1 at 100 nM using ERK2 as substrate by [gamma-33P]-ATP assay
[20] = biological target: Mitogen-activated protein kinase kinase kinase 2 (Homo sapiens) (UniProt Q9Y2U5); assay: Inhibition of human MEKK2 at 100 nM using MBP as substrate by [gamma-33P]-ATP assay
[21] = biological target: Misshapen-like kinase 1 (Homo sapiens) (UniProt Q8N4C8); assay: Inhibition of human MINK1 at 100 nM using MBP as substrate by [gamma-33P]-ATP assay
[22] = biological target: Protein kinase C zeta type (Homo sapiens) (UniProt Q05513); assay: Inhibition of human PKCzeta at 100 nM using ERMRPRKRQGSVRRRV as substrate by [gamma-33P]-ATP assay
[23] = biological target: Serine/threonine-protein kinase D2 (Homo sapiens) (UniProt Q9BZL6); assay: Inhibition of human PKD2 at 100 nM using KKLNRTLSVA as substrate by [gamma-33P]-ATP assay
Chain of Serine/threonine-protein kinase D2 (Homo sapiens) (Q9BZL6 whole entry): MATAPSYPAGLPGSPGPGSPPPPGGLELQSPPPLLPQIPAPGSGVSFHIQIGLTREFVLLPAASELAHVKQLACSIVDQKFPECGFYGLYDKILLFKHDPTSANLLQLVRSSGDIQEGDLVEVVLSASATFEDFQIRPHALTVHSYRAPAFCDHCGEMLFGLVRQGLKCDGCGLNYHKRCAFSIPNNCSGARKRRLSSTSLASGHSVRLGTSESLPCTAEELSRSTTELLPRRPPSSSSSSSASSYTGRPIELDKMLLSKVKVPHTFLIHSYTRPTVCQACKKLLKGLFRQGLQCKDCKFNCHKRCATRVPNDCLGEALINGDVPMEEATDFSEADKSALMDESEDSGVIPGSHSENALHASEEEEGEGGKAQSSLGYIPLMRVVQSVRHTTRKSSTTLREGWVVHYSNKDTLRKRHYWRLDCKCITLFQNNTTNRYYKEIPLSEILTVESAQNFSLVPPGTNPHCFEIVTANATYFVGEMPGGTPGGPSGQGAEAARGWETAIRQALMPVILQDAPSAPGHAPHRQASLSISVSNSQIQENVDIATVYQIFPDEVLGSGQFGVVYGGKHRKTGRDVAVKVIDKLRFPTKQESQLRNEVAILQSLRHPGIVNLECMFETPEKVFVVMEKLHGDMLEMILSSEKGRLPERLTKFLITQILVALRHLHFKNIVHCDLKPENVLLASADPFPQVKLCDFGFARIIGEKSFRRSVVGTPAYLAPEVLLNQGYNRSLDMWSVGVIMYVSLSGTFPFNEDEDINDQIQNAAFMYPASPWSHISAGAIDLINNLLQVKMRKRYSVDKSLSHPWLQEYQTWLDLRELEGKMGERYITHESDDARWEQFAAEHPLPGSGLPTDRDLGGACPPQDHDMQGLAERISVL

[24] = biological target: cGMP-dependent protein kinase 1 (Homo sapiens) (UniProt Q13976); assay: Inhibition of human PKG1alpha at 100 nM using LRRASLG as substrate by [gamma-33P]-ATP assay
[25] = biological target: Ribosomal protein S6 kinase alpha-3 (Homo sapiens) (UniProt P51812); assay: Inhibition of human RSK2 at 100 nM using KKLNRTLSVA as substrate by [gamma-33P]-ATP assay
[26] = biological target: Serine/threonine-protein kinase Sgk1 (Homo sapiens) (UniProt O00141); assay: Inhibition of human SGK1 at 100 nM using KGSGSGRPRTSSFAEG as substrate by [gamma-33P]-ATP assay
Chain of Serine/threonine-protein kinase Sgk1 (Homo sapiens) (O00141 whole entry): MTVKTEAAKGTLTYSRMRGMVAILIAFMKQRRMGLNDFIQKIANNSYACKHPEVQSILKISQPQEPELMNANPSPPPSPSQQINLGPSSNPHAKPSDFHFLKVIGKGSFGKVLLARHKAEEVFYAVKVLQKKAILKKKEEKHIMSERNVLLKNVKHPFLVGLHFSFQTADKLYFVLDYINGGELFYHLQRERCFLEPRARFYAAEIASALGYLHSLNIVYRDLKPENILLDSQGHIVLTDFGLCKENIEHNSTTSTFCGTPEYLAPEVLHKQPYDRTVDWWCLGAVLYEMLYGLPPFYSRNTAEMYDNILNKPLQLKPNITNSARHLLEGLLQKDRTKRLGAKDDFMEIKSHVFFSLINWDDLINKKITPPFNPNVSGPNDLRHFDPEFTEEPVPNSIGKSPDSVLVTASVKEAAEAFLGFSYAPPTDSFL

[27] = biological target: Non-receptor tyrosine-protein kinase TYK2 (Homo sapiens) (UniProt P29597); assay: Inhibition of human TYK2 at 100 nM using KKSRGDYMTMQIG as substrate by [gamma-33P]-ATP assay
Chain of Non-receptor tyrosine-protein kinase TYK2 (Homo sapiens) (P29597 whole entry): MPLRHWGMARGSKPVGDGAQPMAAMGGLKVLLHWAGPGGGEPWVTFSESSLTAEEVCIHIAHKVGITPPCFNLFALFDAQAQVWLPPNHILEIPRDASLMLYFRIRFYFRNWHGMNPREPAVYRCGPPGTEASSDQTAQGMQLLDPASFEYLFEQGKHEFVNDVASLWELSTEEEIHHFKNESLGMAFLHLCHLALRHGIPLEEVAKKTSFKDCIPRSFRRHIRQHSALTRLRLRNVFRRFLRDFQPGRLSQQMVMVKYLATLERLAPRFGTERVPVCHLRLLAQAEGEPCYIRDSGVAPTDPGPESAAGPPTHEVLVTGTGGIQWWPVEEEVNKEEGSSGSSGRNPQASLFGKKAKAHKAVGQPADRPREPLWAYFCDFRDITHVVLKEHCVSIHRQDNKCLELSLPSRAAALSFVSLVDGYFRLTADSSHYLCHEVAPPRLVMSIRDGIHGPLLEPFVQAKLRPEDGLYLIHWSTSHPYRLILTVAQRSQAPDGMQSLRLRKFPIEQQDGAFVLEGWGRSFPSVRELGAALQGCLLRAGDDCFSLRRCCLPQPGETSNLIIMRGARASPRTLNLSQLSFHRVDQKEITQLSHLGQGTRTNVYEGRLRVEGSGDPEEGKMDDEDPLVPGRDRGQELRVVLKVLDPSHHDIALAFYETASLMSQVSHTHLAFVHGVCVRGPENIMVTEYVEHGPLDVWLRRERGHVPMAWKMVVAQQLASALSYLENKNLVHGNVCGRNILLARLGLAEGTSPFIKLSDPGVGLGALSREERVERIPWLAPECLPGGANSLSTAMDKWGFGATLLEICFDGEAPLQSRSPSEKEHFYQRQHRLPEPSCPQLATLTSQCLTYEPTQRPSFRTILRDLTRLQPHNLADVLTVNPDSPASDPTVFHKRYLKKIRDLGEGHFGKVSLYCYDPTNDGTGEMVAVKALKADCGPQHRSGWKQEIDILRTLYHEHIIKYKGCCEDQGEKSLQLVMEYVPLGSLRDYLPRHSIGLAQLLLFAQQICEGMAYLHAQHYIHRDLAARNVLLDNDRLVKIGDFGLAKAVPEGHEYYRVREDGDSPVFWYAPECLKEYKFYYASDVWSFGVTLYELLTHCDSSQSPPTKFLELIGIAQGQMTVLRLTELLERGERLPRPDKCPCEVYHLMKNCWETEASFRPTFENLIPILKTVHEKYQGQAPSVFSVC

[28] = biological target: [Pyruvate dehydrogenase (acetyl-transferring)] kinase isozyme 3, mitochondrial (Homo sapiens) (UniProt Q15120); assay: Inhibition of human PDK3 at 100 nM using MBP as substrate by [gamma-33P]-ATP assay
[29] = biological target: Transient receptor potential cation channel subfamily M member 7 (Homo sapiens) (UniProt Q96QT4); assay: Inhibition of human TRPM7 at 100 nM using MBP as substrate by [gamma-33P]-ATP assay
Chain of Transient receptor potential cation channel subfamily M member 7 (Homo sapiens) (Q96QT4 whole entry): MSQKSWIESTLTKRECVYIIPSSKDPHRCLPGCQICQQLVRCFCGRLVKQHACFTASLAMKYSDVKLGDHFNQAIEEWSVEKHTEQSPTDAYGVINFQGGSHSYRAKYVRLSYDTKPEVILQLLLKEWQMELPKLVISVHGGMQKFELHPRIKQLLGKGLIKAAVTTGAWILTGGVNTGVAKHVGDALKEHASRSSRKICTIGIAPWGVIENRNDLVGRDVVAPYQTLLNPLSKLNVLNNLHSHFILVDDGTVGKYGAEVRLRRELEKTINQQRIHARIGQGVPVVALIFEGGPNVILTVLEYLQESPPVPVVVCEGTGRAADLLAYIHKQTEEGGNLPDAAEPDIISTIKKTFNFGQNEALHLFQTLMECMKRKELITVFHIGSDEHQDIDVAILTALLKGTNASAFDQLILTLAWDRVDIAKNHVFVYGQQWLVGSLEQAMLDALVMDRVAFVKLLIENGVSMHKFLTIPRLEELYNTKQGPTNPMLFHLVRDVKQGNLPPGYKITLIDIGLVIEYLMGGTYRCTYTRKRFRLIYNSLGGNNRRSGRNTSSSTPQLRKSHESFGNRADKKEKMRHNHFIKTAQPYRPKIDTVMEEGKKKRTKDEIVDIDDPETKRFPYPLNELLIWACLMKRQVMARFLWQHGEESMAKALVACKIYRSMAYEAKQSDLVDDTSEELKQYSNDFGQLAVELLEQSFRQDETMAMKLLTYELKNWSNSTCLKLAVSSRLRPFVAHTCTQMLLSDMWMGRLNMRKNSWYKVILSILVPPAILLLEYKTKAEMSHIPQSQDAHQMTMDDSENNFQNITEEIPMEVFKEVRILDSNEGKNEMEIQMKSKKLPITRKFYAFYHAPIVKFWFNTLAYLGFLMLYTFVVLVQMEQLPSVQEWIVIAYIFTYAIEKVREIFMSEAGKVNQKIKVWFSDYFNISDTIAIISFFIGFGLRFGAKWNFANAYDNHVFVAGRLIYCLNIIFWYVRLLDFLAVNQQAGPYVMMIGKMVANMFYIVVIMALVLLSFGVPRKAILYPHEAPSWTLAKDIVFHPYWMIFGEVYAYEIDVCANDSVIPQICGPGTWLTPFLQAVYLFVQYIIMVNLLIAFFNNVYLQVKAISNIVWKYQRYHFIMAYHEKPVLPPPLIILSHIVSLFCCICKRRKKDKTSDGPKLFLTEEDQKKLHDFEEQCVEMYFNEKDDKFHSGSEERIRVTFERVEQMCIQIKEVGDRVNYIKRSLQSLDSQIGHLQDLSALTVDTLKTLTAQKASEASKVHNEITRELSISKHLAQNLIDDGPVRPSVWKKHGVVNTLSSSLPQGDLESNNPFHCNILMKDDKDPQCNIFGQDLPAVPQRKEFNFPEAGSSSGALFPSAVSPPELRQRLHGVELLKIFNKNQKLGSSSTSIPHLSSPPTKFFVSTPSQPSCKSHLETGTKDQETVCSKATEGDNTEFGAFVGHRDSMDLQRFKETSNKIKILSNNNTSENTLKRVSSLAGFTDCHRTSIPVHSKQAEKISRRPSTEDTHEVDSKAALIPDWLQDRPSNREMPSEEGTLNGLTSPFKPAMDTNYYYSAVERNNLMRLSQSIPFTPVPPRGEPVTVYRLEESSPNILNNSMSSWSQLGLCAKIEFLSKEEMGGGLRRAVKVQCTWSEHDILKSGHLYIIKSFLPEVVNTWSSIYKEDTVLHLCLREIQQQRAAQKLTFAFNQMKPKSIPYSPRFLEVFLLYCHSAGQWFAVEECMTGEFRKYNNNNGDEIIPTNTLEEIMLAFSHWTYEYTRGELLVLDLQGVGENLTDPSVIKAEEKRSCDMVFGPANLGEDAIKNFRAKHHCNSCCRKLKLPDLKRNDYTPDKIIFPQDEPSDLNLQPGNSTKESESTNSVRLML

MCF7 = assay: cells; conditions: Homo sapiens, MCF7, 72 h

## COc1ccc(N2C(=O)COc3ccc(-c4cnc(OC)c(NS(=O)(=O)c5ccc(F)cc5)c4)cc32)cc1
HeLa
  inhibition (INH): <=100%
[1]
  Activity: Non-Toxic
[2]
  inhibition: 5.88%
[3]
  inhibition: 2.94%
[4]
  inhibition: -0.05%
[5]
  inhibition: 27.5%
[6]
  inhibition: 14.8%
[7]
  inhibition: 22.6%
[8]
  inhibition: 4%
[9]
  inhibition: 2.74%
[10]
  inhibition: 2.83%
[11]
  inhibition: 7.47%
[12]
  inhibition: 1%
[13]
  inhibition: -3.64%
[14]
  inhibition: -7.49%
[15]
  inhibition: 3.08%
[16]
  inhibition: -7.65%
[17]
  inhibition: -4.94%
[18]
  inhibition: 16%
[19]
  inhibition: 1.42%
[20]
  inhibition: 28.4%
[21]
  inhibition: 9.96%
[22]
  inhibition: 8.59%
[23]
  inhibition: -3.61%
[24]
  inhibition: 4.25%
[25]
  inhibition: 19.6%
[26]
  inhibition: -1.5%
[27]
  inhibition: 11.3%
[28]
  inhibition: 8.78%
[29]
  inhibition: 1.61%
MCF7
  IC50: 8.26 µM
